Measured values published in BindingDB's records for doi:10.1021/jm020164l (University of Montreal, 2002).

Molecular target: Delta-type opioid receptor (Homo sapiens, UniProt P41143)
Assay: In vitro binding affinity against cloned human Opioid receptor delta 1 expressed in HEK 293S cells

Delta-type opioid receptor, sequence (P41143 whole entry): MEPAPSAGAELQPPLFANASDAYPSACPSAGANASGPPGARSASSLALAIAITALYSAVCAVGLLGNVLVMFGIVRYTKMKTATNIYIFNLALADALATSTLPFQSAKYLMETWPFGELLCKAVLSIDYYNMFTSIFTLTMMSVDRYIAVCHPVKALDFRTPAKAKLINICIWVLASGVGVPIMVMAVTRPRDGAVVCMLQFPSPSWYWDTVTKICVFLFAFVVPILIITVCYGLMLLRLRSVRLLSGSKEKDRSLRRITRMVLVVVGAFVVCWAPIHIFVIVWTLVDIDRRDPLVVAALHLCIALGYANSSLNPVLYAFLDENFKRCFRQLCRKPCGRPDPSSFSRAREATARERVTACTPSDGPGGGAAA

`C[C@H]1C2C3=CC=CCC3[C@@H](Cc3ccccc32)N1C` (stereo partly drawn) [16,17-dimethyl-(16S)-17-azatetracyclo[7.6.2.02,7.010,15]heptadeca-2(7),3,5,12,14-pentaene] was tested, and the IC50 was over 10 µM.
